Legend:
Type in all cases: in vivo
[1] = tested on: western corn rootworm (Diabrotica virgifera virgifera); experiment: Test Method 5: western corn rootworm on immersed corn seedlings; settings: 200 ppm; seedlings immersed 30 seconds; 2nd instar larvae; 5 days; 25 °C
Procedure: Each test compound is dissolved in 50 μL of a mixed solution of polyoxyethylene sorbitan monococoate and acetone (at a volume ratio of 5:95) per 1 mg of the test compound. Water containing 0.03% by volume of Shindaine (registered trademark) is added thereto to prepare a diluted solution containing a prescribed concentration of each test compound.
Young seedlings of corns (Zea mays) are immersed in each of the diluted solutions for 30 seconds. Thereafter, two seedlings are placed in a petri dish (diameter: 90 mm), and ten 2nd instar larvae of western corn rootworm (Diabrotica virgifera virgifera) are released into the dish. After 5 days, the number of the dead insects is counted, and the mortality of insects is calculated by the following equation.
Mortality (%)=(1−Number of dead insects/10)×100
The test was carried out by making the prescribed concentration 200 ppm and using the following present compounds as a test compound according to the test method 5.

[2] = tested on: houseflies (Musca domestica); experiment: Test Method 8: housefly, coated container contact; settings: coating amount 40 mg/m^2; adult males; 1 day; 25 °C
Procedure: An acetone solution prepared by making the concentration of the test compound 800 ppm is poured into a 20 mL container, and the inner face of the container is uniformly coated with the test compound so as to make the coating amount of 40 mg/m^2, followed by drying.
Five adult male houseflies (Musca domestica) are released into the container, and the container is then covered with a lid. After the prescribed time is elapsed, the state of the houseflies are examined. The mortality of insects is calculated by the following equation.
(§1) Mortality (%)=(Number of dead insects/Number of tested insects)×100
The test was carried out by making the prescribed elapsed time 1 day and using the following present compounds as a test compound according to the test method 8.

[3] = tested on: German cockroach (Blattella germanica); experiment: Test Method 6: German cockroach, coated container contact; settings: coating amount 40 mg/m^2; male adults; 3 days; 25 °C
Procedure: An acetone solution prepared by making the concentration of the test compound 800 ppm is poured into a 50 mL container, and the inner face of the container is uniformly coated with the test compound so as to make the coating amount of 40 mg/m^2, followed by drying.
Five German cockroach (Blattella germanica) male adults are released into the container, and the container is then covered with a lid. After the prescribed time is elapsed, the state of the German cockroach are examined. The mortality of insects is calculated by the following equation.
as §1
The test was carried out by making the prescribed elapsed time 3 days and using the following present compounds as a test compound according to the test method 6.

[4] = tested on: cotton aphids (Aphis gossypii); experiment: Test Method 1: cotton aphid foliar spray, cucumber seedlings (Formulation Example 1); settings: 500 ppm; spray 10 mL/seedling; 5 days after spraying; 25 °C
Procedure: (§2) Each test compound is formulated according to the method mentioned in Formulation Example 1 to obtain each formulation, and water containing 0.03% by volume of Shindaine (registered trademark) is added thereto to prepare a diluted solution containing a prescribed concentration of each test compound.
(§3) Approximately 30 cotton aphids (Aphis gossypii) (all stages of life) are released onto cucumber (Cucumis sativus) seedlings (on the developmental stage of the second true leaf) planted in a container. After 1 day, each of the diluted solutions is sprayed over the seedlings in a ratio of 10 mL/seedling. After additional 5 days, the number of the surviving insects is examined and the control value is calculated by the following equation.
(§4) Control value (%)={1−(Cb×Tai)/(Cai×Tb)}×100 • where symbols in the equation represent the following meanings: • Cb: Number of test insects in non-treated area; • Cai: Number of surviving insects at the time of the investigation in non-treated area; • Tb: Number of test insects in treated area; and • Tai: Number of surviving insects at the time of the investigation in treated area.
(§5) Here, the “non-treated area” represents an area where the same treatment procedure as that of the treated area is carried out except for not using each test compound.
The test was carried out by making the prescribed concentration 500 ppm and using the following present compounds as a test compound according to the test method 1.

[5] = tested on: common house mosquito (Culex pipiens pallens); experiment: Test Method 12: common house mosquito larvae in diluted solution; settings: 3.5 ppm; final instar larvae; 1 day; 25 °C
Procedure: Each test compound is formulated according to the method mentioned in Formulation Example 1 to obtain each formulation, and water is added thereto to prepare a diluted solution containing a prescribed concentration of each test compound. […]
The test was carried out by making the prescribed concentration 3.5 ppm and using the following present compounds as a test compound according to the test method 12.

[6] = tested on: common cutworm (Spodoptera litura); experiment: Test Method 3: common cutworm on sprayed cabbage, 2nd instar larvae; settings: 500 ppm, spray 20 mL/seedling, 5 days, 25 °C
Procedure: as §2
(§6) Each of the diluted solutions is sprayed over cabbage (Brassicae oleracea) seedlings (on the developmental stage of the second to third true leaf) planted in a container in a ratio of 20 mL/seedling. Thereafter, the stem and leaf of the seedlings are cut out, and placed in a container lined with a filter paper. Five 2nd instar larvae of common cutworm (Spodoptera litura) are released into the container. After 5 days, the number of the surviving insects is counted, and the mortality of insects is calculated by the following equation.
(§7) Mortality (%)=(1−Number of surviving insects/5)×100
The test was carried out by making the prescribed concentration 500 ppm and using the following present compounds as a test compound according to the test method 3.

[7] = tested on: diamondback moth (Plutella xylostella); experiment: Test Method 10: diamondback moth on sprayed cabbage, 3rd instar larvae (Formulation Example 5); settings: spray 20 mL/seedling, 5 days, 25 °C
Procedure: (§8) Each test compound is formulated according to the method mentioned in Formulation Example 5 to obtain each formulation, and water containing 0.03% by volume of Shindaine (registered trademark) is added thereto to prepare a diluted solution containing a prescribed concentration of each test compound.
(§9) Each of the diluted solutions is sprayed over cabbage (Brassicae oleracea) seedlings (on the developmental stage of the third to fourth true leaf) planted in a container in a ratio of 20 mL/seedling. Thereafter, ten 3rd instar larvae of diamondback moth (Plutella xylostella) are released into the container. After 5 days, the number of the surviving insects is counted, and the mortality of insects is calculated by the following equation.
(§10) Mortality (%)=(1−Number of surviving insects/10)×100
The test was carried out by making the prescribed concentration 200 ppm and using the following present compounds as a test compound according to the test method 10.
The test was carried out by making the prescribed concentration 50 ppm and using the following present compounds as a test compound according to the test method 10.

[8] = tested on: common cutworm (Spodoptera litura); experiment: Test Method 9: common cutworm on sprayed cabbage, 3rd instar larvae (Formulation Example 5); settings: 200 ppm, spray 20 mL/seedling, 6 days, 25 °C
Procedure: as §8
as §9, with “common cutworm (Spodoptera litura)” for “diamondback moth (Plutella xylostella)”, “6” for “5”, “counted” for “counted,”
as §10
The test was carried out by making the prescribed concentration 200 ppm and using the following present compounds as a test compound according to the test method 9.
The test is carried out by making the prescribed concentration 50 ppm and using the following present compounds as a test compound according to the test method 9. As a result of the test, it is possible to confirm an insecticidal effect on common cutworm (Spodoptera litura).

[9] = tested on: cotton aphids (Aphis gossypii); experiment: Test Method 11: cotton aphid foliar spray, cucumber seedlings (Formulation Example 5); settings: spray 10 mL/seedling, 5 days after spraying, 25 °C
Procedure: as §8
as §3, with “thirty” for “30”
as §4, §5
The test was carried out by making the prescribed concentration 200 ppm and using the following present compounds as a test compound according to the test method 11.
The test was carried out by making the prescribed concentration 50 ppm and using the following present compounds as a test compound according to the test method 11.

[10] = tested on: diamondback moth (Plutella xylostella); experiment: Test Example 4 (test method 4): diamondback moth on sprayed cabbage, 2nd instar larvae; settings: 500 ppm, spray 20 mL/seedling, 5 days, 25 °C
Procedure: as §2
as §6, with “diamondback moth (Plutella xylostella)” for “common cutworm (Spodoptera litura)”
as §7
The test was carried out by making the prescribed concentration 500 ppm and using the following present compounds as a test compound according to the test method 4.

Structure (SMILES): CNS(=O)(=O)c1c(-c2cnc(OCC(F)(F)C(F)(F)F)cn2)nc2ccc(Br)cn12 [compound 1]
- mortality [1]: ≥ 80%
- mortality of insects [2]: ≥ 80%
- mortality of insects [3]: ≥ 80%
- control value [4]: ≥ 90%
- mortality [5]: ≥ 90%
- mortality [6]: ≥ 80%
- mortality ([7]; 50 ppm): ≥ 80%
- mortality ([7]; 200 ppm): ≥ 80%
- mortality [8]: ≥ 80%
- control value ([9]; 50 ppm): ≥ 90%
- control value ([9]; 200 ppm): ≥ 90%
- mortality [10]: ≥ 80%

Structure (SMILES): CCNS(=O)(=O)c1c(-c2cnc(OCC(F)(F)C(F)(F)F)cn2)nc2ccc(Br)cn12 [compound 2]
- mortality [1]: ≥ 80%
- mortality of insects [2]: ≥ 80%
- mortality of insects [3]: ≥ 80%
- control value [4]: ≥ 90%
- mortality [5]: ≥ 90%
- mortality [6]: ≥ 80%
- mortality ([7]; 50 ppm): ≥ 80%
- mortality ([7]; 200 ppm): ≥ 80%
- mortality [8]: ≥ 80%
- control value ([9]; 50 ppm): ≥ 90%
- control value ([9]; 200 ppm): ≥ 90%
- mortality [10]: ≥ 80%

Structure (SMILES): CN(C)S(=O)(=O)c1c(-c2ccc(OCC(F)(F)C(F)F)nn2)nc2ccc(I)cn12 [compound 4]
- control value [4]: ≥ 90%
- mortality [6]: ≥ 80%
- mortality ([7]; 50 ppm): ≥ 80%
- mortality ([7]; 200 ppm): ≥ 80%
- mortality [8]: ≥ 80%
- mortality [10]: ≥ 80%

— patent US20260327222A1, “SULFONAMIDE COMPOUND AND HARMFUL-ARTHROPOD-CONTROLLING COMPOSITION CONTAINING SAME” (SUMITOMO CHEMICAL COMPANY, LIMITED, priority 2022, published 2026)
